Reference: patent US20040167192A1, “Methods of treating conditions associated with an Edg-7 receptor” (priority 2003, published 2004)

What was measured:
[1] = target: T1, Edg-1 (Homo sapiens, UniProt P21453); assay: Intracellular calcium mobilization (FLIPR) in HTC cells expressing Edg-1; assay type: cell-based
T1 construct: expressed in transfected cells; host or cells: HTC rat hepatoma cells

[2] = target: T2, Edg-8 (Homo sapiens, UniProt Q9H228); assay: Intracellular calcium mobilization (FLIPR) in HTC cells expressing Edg-8; assay type: cell-based
T2 construct: expressed in transfected cells; host or cells: HTC rat hepatoma cells
T2 sequence (Q9H228 whole entry): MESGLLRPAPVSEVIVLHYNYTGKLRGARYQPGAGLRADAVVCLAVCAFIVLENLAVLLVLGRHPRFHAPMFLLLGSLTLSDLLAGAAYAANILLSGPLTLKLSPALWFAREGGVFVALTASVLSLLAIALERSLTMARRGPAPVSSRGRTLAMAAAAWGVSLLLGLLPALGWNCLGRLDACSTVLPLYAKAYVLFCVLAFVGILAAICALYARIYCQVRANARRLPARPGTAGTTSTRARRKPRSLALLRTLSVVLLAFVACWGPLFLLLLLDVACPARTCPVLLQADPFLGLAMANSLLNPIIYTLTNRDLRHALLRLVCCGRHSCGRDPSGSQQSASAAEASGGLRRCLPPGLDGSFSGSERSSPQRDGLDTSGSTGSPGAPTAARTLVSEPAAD

[3] = target: T3, Edg-6 (Homo sapiens, UniProt O95977); assay: Intracellular calcium mobilization (FLIPR) in HTC cells expressing Edg-6; assay type: cell-based
T3 construct: expressed in transfected cells; host or cells: HTC rat hepatoma cells
T3 sequence (O95977 1-384): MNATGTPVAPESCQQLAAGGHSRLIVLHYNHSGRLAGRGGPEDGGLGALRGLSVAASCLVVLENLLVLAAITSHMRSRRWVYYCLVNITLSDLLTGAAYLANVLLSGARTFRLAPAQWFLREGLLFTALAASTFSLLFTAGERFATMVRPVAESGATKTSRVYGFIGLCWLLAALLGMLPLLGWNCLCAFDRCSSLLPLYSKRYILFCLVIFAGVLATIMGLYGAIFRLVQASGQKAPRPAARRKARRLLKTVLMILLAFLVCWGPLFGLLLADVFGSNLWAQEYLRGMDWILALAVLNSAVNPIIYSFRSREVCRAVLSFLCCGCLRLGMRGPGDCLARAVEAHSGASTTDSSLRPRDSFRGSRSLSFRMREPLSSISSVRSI

[4] = target: T4, human Edg 7 receptors (Homo sapiens, UniProt Q9UBY5); assay: Intracellular calcium mobilization (FLIPR) in HTC cells expressing Edg-7; assay type: cell-based
T4 construct: expressed in transfected cells; host or cells: HTC rat hepatoma cells
T4 sequence (Q9UBY5 1-353): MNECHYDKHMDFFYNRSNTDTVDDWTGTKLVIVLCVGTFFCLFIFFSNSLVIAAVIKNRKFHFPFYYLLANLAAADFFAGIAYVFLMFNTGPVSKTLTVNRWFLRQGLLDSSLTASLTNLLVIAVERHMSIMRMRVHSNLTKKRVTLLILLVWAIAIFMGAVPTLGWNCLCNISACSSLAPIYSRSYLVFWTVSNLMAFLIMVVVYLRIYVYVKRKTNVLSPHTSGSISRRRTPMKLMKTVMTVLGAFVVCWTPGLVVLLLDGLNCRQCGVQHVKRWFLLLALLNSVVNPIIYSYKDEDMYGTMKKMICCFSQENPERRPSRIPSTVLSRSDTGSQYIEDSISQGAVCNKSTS
Experimental: (§1) The compounds were tested in HTC cells expressing human Edg 7 receptors. […] The compounds are tested in this recombinant system first, and subsequently tested in cell lines expressing Edg-7 (in addition to other Edg receptors).
as §1, with “receptors). […] The calcium mobilization assays were conducted as described in Section 6.6 (Example 6).” for “receptors).”
LPA receptors such as Edg-7, couple to calcium effector pathways, and result in increases in intracellular calcium following receptor activation (An, 1998, J. Cell. Biochem Supp. 30-31:147-157). This biological response lends itself to a very efficient, high-throughput screen using a Fluorescence Imaging Plate Reader (FLIPR; Molecular Devices, Sunnyvale, Calif.). The FLIPR system is a real-time, cell-based assay system with continuous fluorescence detection using a cooled CCD camera. The FLIPR system was used to developing an Edg-7 receptor screen. Rat hepatoma cells stably expressing Edg-7 receptor were plated on 384-well plates and loaded with a calcium dye loading kit (Molecular Devices, Sunnyvale, Calif.) for 1 hour at room temperature. Cells were then placed on the FLIPR^384 (Molecular Devices, Sunnyvale, Calif.) and excited by an argon laser at 488 nm. The data for the entire 384-well plate was updated every second. An integrated robotic pipettor allowed for simultaneous compound addition into each individual well in the plate.

[5] = target: T5, Edg-4 (Homo sapiens, UniProt Q9HBW0); assay: Intracellular calcium mobilization (FLIPR) in HTC cells expressing Edg-4; assay type: cell-based
T5 construct: expressed in transfected cells; host or cells: HTC rat hepatoma cells
T5 sequence (Q9HBW0 whole entry): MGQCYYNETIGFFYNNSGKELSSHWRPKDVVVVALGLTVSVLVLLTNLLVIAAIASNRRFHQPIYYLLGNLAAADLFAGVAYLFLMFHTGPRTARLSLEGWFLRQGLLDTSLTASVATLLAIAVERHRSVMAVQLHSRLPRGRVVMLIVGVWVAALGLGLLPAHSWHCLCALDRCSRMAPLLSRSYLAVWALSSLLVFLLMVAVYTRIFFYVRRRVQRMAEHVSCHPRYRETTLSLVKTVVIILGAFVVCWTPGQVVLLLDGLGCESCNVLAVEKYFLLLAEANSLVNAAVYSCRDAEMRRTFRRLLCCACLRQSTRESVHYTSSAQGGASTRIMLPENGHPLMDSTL

[6] = target: T6, Edg-3 (Homo sapiens, UniProt Q99500); assay: Intracellular calcium mobilization (FLIPR) in HTC cells expressing Edg-3; assay type: cell-based
T6 construct: expressed in transfected cells; host or cells: HTC rat hepatoma cells
T6 sequence (Q99500 whole entry): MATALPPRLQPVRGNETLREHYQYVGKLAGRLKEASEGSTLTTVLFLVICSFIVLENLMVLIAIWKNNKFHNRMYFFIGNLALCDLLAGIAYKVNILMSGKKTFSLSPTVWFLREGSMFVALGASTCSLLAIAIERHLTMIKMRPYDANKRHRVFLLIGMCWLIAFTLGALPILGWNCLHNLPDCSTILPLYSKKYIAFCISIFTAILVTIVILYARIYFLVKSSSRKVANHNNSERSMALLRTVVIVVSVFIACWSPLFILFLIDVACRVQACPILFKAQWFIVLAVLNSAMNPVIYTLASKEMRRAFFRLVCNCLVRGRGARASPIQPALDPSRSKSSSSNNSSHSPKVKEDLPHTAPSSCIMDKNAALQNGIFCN

[7] = target: T7, Edg-5 (Homo sapiens, UniProt O95136); assay: Intracellular calcium mobilization (FLIPR) in HTC cells expressing Edg-5; assay type: cell-based
T7 construct: expressed in transfected cells; host or cells: HTC rat hepatoma cells
T7 sequence (O95136 whole entry): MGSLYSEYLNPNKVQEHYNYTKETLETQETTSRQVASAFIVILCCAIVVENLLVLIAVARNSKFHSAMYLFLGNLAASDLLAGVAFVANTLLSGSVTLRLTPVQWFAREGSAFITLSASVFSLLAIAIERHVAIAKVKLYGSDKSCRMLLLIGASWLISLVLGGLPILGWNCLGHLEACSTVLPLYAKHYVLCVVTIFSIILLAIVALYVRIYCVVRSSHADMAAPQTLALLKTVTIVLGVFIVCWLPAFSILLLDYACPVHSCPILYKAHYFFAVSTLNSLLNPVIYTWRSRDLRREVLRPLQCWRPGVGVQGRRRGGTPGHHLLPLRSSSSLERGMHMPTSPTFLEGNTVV

[8] = target: T8, Edg-2 (Homo sapiens, UniProt Q92633); assay: Intracellular calcium mobilization (FLIPR) in HTC cells expressing Edg-2; assay type: cell-based
T8 construct: expressed in transfected cells; host or cells: HTC rat hepatoma cells
T8 sequence (Q92633 whole entry): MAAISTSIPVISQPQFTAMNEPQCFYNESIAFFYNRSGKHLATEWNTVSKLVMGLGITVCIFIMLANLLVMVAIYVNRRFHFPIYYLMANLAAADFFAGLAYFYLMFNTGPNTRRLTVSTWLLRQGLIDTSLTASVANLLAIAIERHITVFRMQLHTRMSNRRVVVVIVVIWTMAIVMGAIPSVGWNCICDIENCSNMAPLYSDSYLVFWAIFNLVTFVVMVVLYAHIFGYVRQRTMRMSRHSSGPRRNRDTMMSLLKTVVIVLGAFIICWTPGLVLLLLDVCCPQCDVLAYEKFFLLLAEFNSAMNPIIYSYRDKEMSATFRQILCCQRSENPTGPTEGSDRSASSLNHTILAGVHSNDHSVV

[9] = system: untransfected HTC cells; assay: Intracellular calcium mobilization (FLIPR) in untransfected HTC cells; assay type: cell-based, rat; details: concentrations as high as 25 μM
[10] = concentrations as high as 20 μM
[11] = HTC cells expressing human Edg 7 receptors
[12] = concentrations as high as 25 μM

T1 sequence (P21453 whole entry): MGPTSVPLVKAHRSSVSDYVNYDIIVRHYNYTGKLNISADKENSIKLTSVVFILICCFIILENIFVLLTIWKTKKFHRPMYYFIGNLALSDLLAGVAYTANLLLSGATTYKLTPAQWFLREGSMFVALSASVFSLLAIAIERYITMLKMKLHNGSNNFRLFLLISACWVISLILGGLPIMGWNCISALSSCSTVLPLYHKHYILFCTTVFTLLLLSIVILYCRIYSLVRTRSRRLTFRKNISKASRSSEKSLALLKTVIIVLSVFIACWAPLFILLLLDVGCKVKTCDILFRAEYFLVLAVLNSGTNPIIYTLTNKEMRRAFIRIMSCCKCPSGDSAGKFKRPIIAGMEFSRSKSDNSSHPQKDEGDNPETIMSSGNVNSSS

inhibition of S1P-stimulated calcium increases [1, 10] | inhibition of S1P-stimulated calcium increases [2, 10] | inhibition of S1P-stimulated calcium increases [3, 10] | inhibition of Edg-7 stimulated LPA responses [4, 11] | selectivity for Edg 7 ([4]; tested on HTC cells expressing Edg-7) | inhibition of LPA-stimulated calcium increases [5, 10] | inhibition of S1P-stimulated calcium increases [6, 10] | inhibition of S1P-stimulated calcium increases [7, 10] | inhibition of LPA-stimulated calcium increases [8, 10] | stimulation of calcium increases [1, 12] | stimulation of calcium increases [2, 12] | stimulation of calcium increases [3, 12] | activation of the Edg-7 receptor [4, 11] | stimulation of calcium increases [5, 12] | melting point [°C] | stimulation of calcium increases [6, 12] | stimulation of calcium increases [7, 12] | stimulation of calcium increases [8, 12] | Structure (SMILES) | stimulation of calcium increases [9]
did not inhibit | did not inhibit | did not inhibit | demonstrate inhibition | exhibited selectivity | did not inhibit | did not inhibit | did not inhibit | did not inhibit |  |  |  |  |  |  |  |  |  | Cc1ccc(S(=O)(=O)N=C2NC(=O)/C(=C3/C(=O)Nc4ccccc43)S2)cc1 [Compound 105, 4-Methyl-N-[4-oxo-5-(2-oxo1,2-dihydroindol-3-ylidene)thiazolidin-2-ylidene]-benzenesulfonamide] | 
 |  |  | demonstrate inhibition |  |  |  |  |  |  |  |  |  |  |  |  |  |  | O=C(O)COc1ccc(Br)cc1/C=C1\S/C(=N\c2ccc(Cl)cc2)NC1=O [Compound 107, 4-Bromo-2-[2-(4-chlorophenylamino)-4-oxothiazolidin-5-ylidenemethyl]phenoxyacetic acid] | 
 |  |  |  |  |  |  |  |  | did not stimulate calcium increases | did not stimulate calcium increases | did not stimulate calcium increases | specifically activate | did not stimulate calcium increases | 134 to 135 | did not stimulate calcium increases | did not stimulate calcium increases | did not stimulate calcium increases | CCCCCC(CCCCC)=N/N=C1\NC(=O)C(CC(=O)O)S1 (centres unmarked) [Compound 127, 4-Oxo-2-[(1-pentylhexylidene)hydrazono]thiazolidin-5-ylacetic acid] | did not stimulate calcium increases
